Measurements: patent publication US20090137593A1, “4-AMINO-2,6-DIMETHYLPHENOL COMPOUND, PROCESS FOR ITS PREPARATION AND PHARMACEUTICAL COMPOSITION COMPRISING THE SAME” (AZIEN CHIM RIUNITE ANGEL FRANC A.C.R.A.F. S.P.A., priority 2006, published 2009)
Counter-ions that a name gives are not always drawn.

Columns and labels:
[1] = molecular target: T1, enzyme 5-LO (Homo sapiens, UniProt P09917); assay: Effect on the enzyme 5-LO in vitro (human PMNL cells, arachidonic acid substrate, leukotriene quantification); type: cell-based; settings: arachidonic acid as substrate, leukotriene (LT4) quantified
T1 construct: Human PMNL cells (polymorphonuclear leukocytes) were used; endogenous in cells; host or cells: human polymorphonuclear leukocytes (PMNL)
T1 sequence (P09917 1-674): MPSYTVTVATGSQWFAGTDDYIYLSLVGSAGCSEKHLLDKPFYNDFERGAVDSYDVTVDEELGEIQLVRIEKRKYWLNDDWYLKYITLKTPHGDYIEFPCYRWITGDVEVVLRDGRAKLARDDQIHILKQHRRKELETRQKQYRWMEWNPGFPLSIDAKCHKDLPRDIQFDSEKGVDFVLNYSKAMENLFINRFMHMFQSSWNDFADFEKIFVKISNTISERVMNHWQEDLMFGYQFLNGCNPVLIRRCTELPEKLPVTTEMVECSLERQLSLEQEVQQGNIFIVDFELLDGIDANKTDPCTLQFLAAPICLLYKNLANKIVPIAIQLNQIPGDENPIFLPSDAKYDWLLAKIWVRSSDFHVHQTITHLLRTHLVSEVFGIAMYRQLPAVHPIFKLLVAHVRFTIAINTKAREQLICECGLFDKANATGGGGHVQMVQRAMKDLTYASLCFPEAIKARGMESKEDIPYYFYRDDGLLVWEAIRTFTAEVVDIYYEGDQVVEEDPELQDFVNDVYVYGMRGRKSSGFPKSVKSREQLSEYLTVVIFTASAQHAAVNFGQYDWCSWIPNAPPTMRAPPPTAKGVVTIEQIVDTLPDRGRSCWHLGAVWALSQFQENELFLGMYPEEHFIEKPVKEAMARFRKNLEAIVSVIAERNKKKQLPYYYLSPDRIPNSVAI
Protocol: Human PMNL cells (polymorphonuclear leukocytes) were used.
The cells were incubated in the presence of N-(4-hydroxy-3,5-di-methylphenyl)-2-morpholin-4-yl acetamide hydrochloride (Compound 2), using arachidonic acid as reaction substrate.
The activity of the enzyme 5-LO was evaluated by quantifying leukotriene […], which is the final product of the enzymatic reaction.

[2] = system: 5-LO-mediated bronchoconstriction; assay: Effect on 5-LO-mediated bronchoconstriction in vivo (ovalbumin-sensitized guinea pigs, intratracheal pressure); settings: Cavia porcellus, 100 mg/kg ip, 30 minutes before ovalbumin 15 μg/kg iv, read-out: percentage of inhibition of bronchoconstriction
Protocol: Guinea pigs weighing 250-400 g were used.
The animals were sensitized by administration on days 1 and 8 of ovalbumin (0.5 μg/animal, ip). Between days 19 and 23 after the sensitization, the capacity of ovalbumin (15 μg/kg, iv) to induce bronchoconstriction was tested by measuring the increase in intratracheal pressure.
On the day of the test, 30 minutes after administration of Compound 2 (100 mg/kg, ip), the animals were treated with mepiramine (2 mg/kg, iv), indomethacin (10 mg/kg, iv) and propranolol (0.1 mg/kg, iv), and then received ovalbumin (15 μg/kg, iv) to induce bronchoconstriction. The control animals received intraperitoneally only the vehicle used (methylcellulose) for the administration of the tested compound.
The effects on 5-LO-mediated bronchoconstriction in vivo were evaluated by measuring the intratracheal pressure, and are expressed as a percentage of inhibition of bronchoconstriction.

[3] = system: PAN-induced nephrosis; assay: Effects on PAN-induced nephrosis (proteinuria over 24 hours); type: in vivo, Male SD rats; settings: Rattus norvegicus, SD rats, 100 mg/kg ip on seventh day, read-out: percentage of inhibition of the amount of protein excreted (PAN-induced nephrosis)
Protocol: This test allows the in vivo evaluation of the effects on renal damage induced by the inflammatory response following the administration of PAN (puromycin aminonucleoside). Male SD rats weighing 180-220 g were used. The nephrosis was induced by intravenous injection of PAN (100 mg/kg). On the sixth day of administration of PAN, the presence of nephrosis was determined by measuring the amount of protein excreted in the urine over 24 hours (basal proteinuria). On the seventh day, the rats were treated intraperitoneally with Compound 2 (100 mg/kg) and for the next 24 hours the urine was collected to measure the proteinuria. By following the same method, the control animals received, intraperitoneally, only the vehicle (methylcellulose) used to administer the tested compound. The effects on the PAN-induced nephrosis were evaluated by measuring the proteinuria over 24 hours and expressed as a percentage of inhibition of the amount of protein excreted.

[4] = system: nephritis induced by anti-GBM antibodies; assay: Effects on nephritis induced by anti-GBM antibodies (proteinuria over 24 hours); type: in vivo, Male WKY rats; settings: Rattus norvegicus, WKY rats, 100 mg/kg ip, 2 administrations per day, tenth day, read-out: percentage of inhibition of the amount of protein excreted (anti-GBM nephritis)
Protocol: This test allows evaluation in vivo of the effects on renal damage induced by the inflammatory response following the administration of anti-GBM antibodies (anti-glomerular basal membrane antibodies). Male WKY rats weighing 180-220 g were used. The nephritis was induced by intravenous injection of anti-GBM antibodies. Immediately after administration of the antibody and 6 hours later, Compound 2 was administered intraperitoneally (100 mg/kg). The treatment was continued for the following 9 days, with 2 administrations per day of the tested product. By following the same methods, the control animals received only the vehicle (methylcellulose) used to administer the tested compound. On the tenth day from injection of the antibodies, the effects on nephritis were evaluated by measuring the proteinuria over 24 hours and expressed as a percentage of inhibition of the amount of protein excreted.

[5] = system: yeast-induced febrile response; assay: Anti-pyretic activity (yeast-induced febrile response, rectal temperature); type: in vivo, Male CD rats; settings: CD rats; for effect on the febrile response (rectal temperature): 30 mg/kg ip 18 hours after yeast, FIG. 1
Protocol: This test allows in vivo evaluation of the effects on the yeast-induced febrile response. Male CD rats weighing 101-125 g were used. Fevers were induced by subcutaneous injection of a 15% yeast suspension. 18 hours after the administration of yeast, a first group of animals was treated intraperitoneally (30 mg/kg) with Compound 2, while a second group of animals was treated with the Comparison Compound. A third group of control animals received intraperitoneally only the vehicle (methylcellulose) used to administer the tested compounds. For all the groups, the rectal temperature was measured 30 minutes and 1, 2 and 4 hours after the treatment.

[6] = system: nociceptive response induced by mechanical hyperalgesia; assay: Anti-nociceptive activity (carrageenan-induced mechanical hyperalgesia, analgesimeter); type: in vivo, Male CD rats; settings: Rattus norvegicus; CD rats, ip 2 hours after carrageenan, evaluated 1, 2 and 4 hours after treatment; read-out: ED50 (anti-nociceptive, mechanical pain threshold)
[7] = system: 5-LO-mediated bronchoconstriction; settings: Sakuma Y et al., Prostaglandins, 1991; cited from earlier work

SMILES	IC50 [1] [µM]	inhibition at 100 mg/kg [2] [%]	inhibition at 100 mg/kg [3] [%]	inhibition at 100 mg/kg [4] [%]	duration of the anti-pyretic effects ([5]; 30 mg/kg ip)	time to significant reduction in the febrile response after treatment ([5]; 30 mg/kg ip) [h]	effect on the febrile response (rectal temperature) [5]	ED50 [6] [mg/kg]	percentage of inhibition of bronchoconstriction (literature reference) [7] [%]
Cc1cc(NC(=O)CN2CCOCC2)cc(C)c1O [Compound 2, N-(4-Hydroxy-3,5-dimethylphenyl)-2-morpholin-4-yl acetamide hydrochloride]	31	7	2	1	about 4 hours	≤ 1	significant reduction in the febrile response	3	–
Cc1cc(NC(=O)CCN2CCOCC2)cc(C)c1O [Comparison Compound, N-(4-Hydroxy-3,5-dimethylphenyl)-3-morpholin-4-yl propanamide hydrochloride, reference compound]	–	–	–	–	–	–	incapable of reducing the febrile response	> 100	–
O=C1CCN(c2ccccc2)N1 [phenidone]	–	–	–	–	–	–	–	–	86
